In ChEMBL document CHEMBL1201862, “PubChem BioAssay data set” (2004):
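All cell lines were grown in 96-well plates and treated with compound for 48 hours. GI50: concentration for 50% inhibition of growth.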 The source made the active and inactive calls. Rule as the data show it: active = GI50 up to about 1.1 µM and inactive = higher.

What was measured:
Experiment in all cases: inhibition of tumour cell growth, NCI panel, 48 h
SNB-75 = tested on: SNB-75
RXF 393 = tested on: RXF 393
COLO 205 = tested on: COLO 205
K562 = tested on: K562
MDA-N = tested on: MDA-N
BT-549 = tested on: BT-549
RPMI-8226 = tested on: RPMI-8226
MDA-MB-231 = tested on: MDA-MB-231
KM12 = tested on: KM12
MOLT-4 = tested on: MOLT-4
OVCAR-3 = tested on: OVCAR-3
Malme-3M = tested on: Malme-3M
LOX IMVI = tested on: LOX IMVI
ACHN = tested on: ACHN
HT-29 = tested on: HT-29
SNB-19 = tested on: SNB-19
UACC-62 = tested on: UACC-62
HCC 2998 = tested on: HCC 2998
SF-268 = tested on: SF-268
SN12C = tested on: SN12C
MCF7 = tested on: MCF7
HOP-62 = tested on: HOP-62
TK-10 = tested on: TK-10
T47D = tested on: T47D
SK-MEL-28 = tested on: SK-MEL-28
IGROV-1 = tested on: IGROV-1
UACC-257 = tested on: UACC-257
MDA-MB-435 = tested on: MDA-MB-435
SK-MEL-5 = tested on: SK-MEL-5
HCT-15 = tested on: HCT-15
SR = tested on: SR
NCI-H460 = tested on: NCI-H460
OVCAR-5 = tested on: OVCAR-5
NCI-H522 = tested on: NCI-H522
A498 = tested on: A498
UO-31 = tested on: UO-31
OVCAR-8 = tested on: OVCAR-8
SF-295 = tested on: SF-295
DU-145 = tested on: DU-145
SK-MEL-2 = tested on: SK-MEL-2
PC-3 = tested on: PC-3
786-0 = tested on: 786-0
Hs-578T = tested on: Hs-578T
EKVX = tested on: EKVX
NCI-H23 = tested on: NCI-H23
NCI/ADR-RES = tested on: NCI/ADR-RES
SW-620 = tested on: SW-620
U-251 = tested on: U-251
NCI-H226 = tested on: NCI-H226
OVCAR-4 = tested on: OVCAR-4
HL-60 = tested on: HL-60
CAKI-1 = tested on: CAKI-1
HCT-116 = tested on: HCT-116
SF-539 = tested on: SF-539
SK-OV-3 = tested on: SK-OV-3
HOP-92 = tested on: HOP-92
M14 = tested on: M14
A549 = tested on: A549
CCRF-CEM = tested on: CCRF-CEM

Measured: GI50

O=C1/C(=C/c2cc3c(=O)c4ccccc4sc3s2)NC(=S)N1c1ccccc1
inactive: SNB-75 5.11 µM | RXF 393 15.4 µM | COLO 205 > 100 µM | K562 40.6 µM | MDA-N > 100 µM | BT-549 51.8 µM | RPMI-8226 > 100 µM | MDA-MB-231 89.9 µM | KM12 > 100 µM | MOLT-4 24.5 µM | OVCAR-3 > 100 µM | Malme-3M > 100 µM | LOX IMVI > 100 µM | ACHN > 100 µM | HT-29 > 100 µM | SNB-19 24 µM | UACC-62 > 100 µM | HCC 2998 > 100 µM | SF-268 55 µM | SN12C > 100 µM | MCF7 > 100 µM | HOP-62 5.01 µM | TK-10 > 100 µM | T47D > 100 µM | SK-MEL-28 > 100 µM | IGROV-1 > 100 µM | UACC-257 > 100 µM | MDA-MB-435 > 100 µM | SK-MEL-5 91.2 µM | SR 12.8 µM | NCI-H460 > 100 µM | OVCAR-5 > 100 µM | NCI-H522 > 100 µM | A498 > 100 µM | UO-31 > 100 µM | OVCAR-8 > 100 µM | SF-295 66.4 µM | DU-145 > 100 µM | SK-MEL-2 78.7 µM | PC-3 > 100 µM | 786-0 23.7 µM | Hs-578T > 100 µM | EKVX 48.3 µM | NCI-H23 > 100 µM | NCI/ADR-RES > 100 µM | SW-620 > 100 µM | U-251 21 µM | NCI-H226 > 100 µM | OVCAR-4 > 100 µM | HL-60 12.2 µM | CAKI-1 > 100 µM | HCT-116 40.4 µM
> 100 µM: HCT-15

C1CCSCCCCSCCCCSCCCCSC1
> 100 µM: HCT-15
inactive: SNB-75 64 µM | RXF 393 > 100 µM | COLO 205 > 100 µM | K562 > 100 µM | MDA-N > 100 µM | BT-549 > 100 µM | RPMI-8226 > 100 µM | MDA-MB-231 > 100 µM | KM12 > 100 µM | SF-539 > 100 µM | OVCAR-3 > 100 µM | LOX IMVI > 100 µM | ACHN > 100 µM | HT-29 > 100 µM | SNB-19 > 100 µM | UACC-62 > 100 µM | HCC 2998 > 100 µM | SF-268 > 100 µM | SN12C > 100 µM | MCF7 > 100 µM | HOP-62 > 100 µM | TK-10 > 100 µM | T47D > 100 µM | SK-OV-3 > 100 µM | SK-MEL-28 > 100 µM | HOP-92 > 100 µM | IGROV-1 > 100 µM | UACC-257 > 100 µM | MDA-MB-435 > 100 µM | SK-MEL-5 > 100 µM | NCI-H460 > 100 µM | OVCAR-5 > 100 µM | NCI-H522 > 100 µM | M14 > 100 µM | A498 > 100 µM | UO-31 > 100 µM | OVCAR-8 > 100 µM | SF-295 > 100 µM | DU-145 > 100 µM | SK-MEL-2 > 100 µM | PC-3 > 100 µM | 786-0 > 100 µM | Hs-578T > 100 µM | EKVX > 100 µM | A549 > 100 µM | NCI-H23 > 100 µM | NCI/ADR-RES > 100 µM | SW-620 > 100 µM | U-251 > 100 µM | NCI-H226 > 100 µM | OVCAR-4 > 100 µM | CAKI-1 > 100 µM | HCT-116 > 100 µM

NCCCNCCCCN1CCOC1=O
inactive: SNB-75 > 100 µM | COLO 205 > 100 µM | K562 > 100 µM | MDA-N > 100 µM | BT-549 > 100 µM | RPMI-8226 > 100 µM | MDA-MB-231 > 100 µM | KM12 > 100 µM | MOLT-4 > 100 µM | SF-539 > 100 µM | OVCAR-3 > 100 µM | Malme-3M > 100 µM | LOX IMVI > 100 µM | ACHN > 100 µM | HT-29 > 100 µM | SNB-19 > 100 µM | UACC-62 > 100 µM | HCC 2998 > 100 µM | SF-268 > 100 µM | SN12C > 100 µM | MCF7 > 100 µM | HOP-62 > 100 µM | TK-10 > 100 µM | T47D > 100 µM | SK-OV-3 > 100 µM | SK-MEL-28 > 100 µM | IGROV-1 > 100 µM | UACC-257 > 100 µM | MDA-MB-435 > 100 µM | SK-MEL-5 > 100 µM | SR > 100 µM | NCI-H460 > 100 µM | OVCAR-5 > 100 µM | NCI-H522 > 100 µM | M14 > 100 µM | A498 > 100 µM | UO-31 > 100 µM | OVCAR-8 > 100 µM | SF-295 > 100 µM | DU-145 > 100 µM | SK-MEL-2 > 100 µM | PC-3 > 100 µM | 786-0 > 100 µM | Hs-578T > 100 µM | EKVX > 100 µM | A549 > 100 µM | NCI-H23 > 100 µM | NCI/ADR-RES > 100 µM | CCRF-CEM > 100 µM | SW-620 > 100 µM | U-251 > 100 µM | NCI-H226 > 100 µM | HL-60 > 100 µM | CAKI-1 > 100 µM | HCT-116 > 100 µM
> 100 µM: HCT-15
